Assay results reported in patent US20120142676A1, “Oxathiazine and dithiine oxides as inhibitors of sulfhydryl-dependent biomolecules” (priority 2010, published 2012).
pIC50: −log10 of the molar value. Where two headings read alike, the source gives them in different places.

Legend:
human topoisomerase IIα = target: T1, human topoisomerase IIα (Homo sapiens, UniProt P11388); experiment: Topoisomerase IIα decatenation inhibition assay; type: biochemical; settings: K562 cells nuclear extract, kDNA decatenation; for inhibition at 3 µM / inhibition at 30 µM: read-out: % Inhibition of topoisomerase II catalytic activity
T1 construct: 300 ng K562 cells nuclear extract, the amount that gave 80% decatenation; endogenous in cells; host or cells: K562 cells nuclear extract
T1 sequence (P11388 whole entry): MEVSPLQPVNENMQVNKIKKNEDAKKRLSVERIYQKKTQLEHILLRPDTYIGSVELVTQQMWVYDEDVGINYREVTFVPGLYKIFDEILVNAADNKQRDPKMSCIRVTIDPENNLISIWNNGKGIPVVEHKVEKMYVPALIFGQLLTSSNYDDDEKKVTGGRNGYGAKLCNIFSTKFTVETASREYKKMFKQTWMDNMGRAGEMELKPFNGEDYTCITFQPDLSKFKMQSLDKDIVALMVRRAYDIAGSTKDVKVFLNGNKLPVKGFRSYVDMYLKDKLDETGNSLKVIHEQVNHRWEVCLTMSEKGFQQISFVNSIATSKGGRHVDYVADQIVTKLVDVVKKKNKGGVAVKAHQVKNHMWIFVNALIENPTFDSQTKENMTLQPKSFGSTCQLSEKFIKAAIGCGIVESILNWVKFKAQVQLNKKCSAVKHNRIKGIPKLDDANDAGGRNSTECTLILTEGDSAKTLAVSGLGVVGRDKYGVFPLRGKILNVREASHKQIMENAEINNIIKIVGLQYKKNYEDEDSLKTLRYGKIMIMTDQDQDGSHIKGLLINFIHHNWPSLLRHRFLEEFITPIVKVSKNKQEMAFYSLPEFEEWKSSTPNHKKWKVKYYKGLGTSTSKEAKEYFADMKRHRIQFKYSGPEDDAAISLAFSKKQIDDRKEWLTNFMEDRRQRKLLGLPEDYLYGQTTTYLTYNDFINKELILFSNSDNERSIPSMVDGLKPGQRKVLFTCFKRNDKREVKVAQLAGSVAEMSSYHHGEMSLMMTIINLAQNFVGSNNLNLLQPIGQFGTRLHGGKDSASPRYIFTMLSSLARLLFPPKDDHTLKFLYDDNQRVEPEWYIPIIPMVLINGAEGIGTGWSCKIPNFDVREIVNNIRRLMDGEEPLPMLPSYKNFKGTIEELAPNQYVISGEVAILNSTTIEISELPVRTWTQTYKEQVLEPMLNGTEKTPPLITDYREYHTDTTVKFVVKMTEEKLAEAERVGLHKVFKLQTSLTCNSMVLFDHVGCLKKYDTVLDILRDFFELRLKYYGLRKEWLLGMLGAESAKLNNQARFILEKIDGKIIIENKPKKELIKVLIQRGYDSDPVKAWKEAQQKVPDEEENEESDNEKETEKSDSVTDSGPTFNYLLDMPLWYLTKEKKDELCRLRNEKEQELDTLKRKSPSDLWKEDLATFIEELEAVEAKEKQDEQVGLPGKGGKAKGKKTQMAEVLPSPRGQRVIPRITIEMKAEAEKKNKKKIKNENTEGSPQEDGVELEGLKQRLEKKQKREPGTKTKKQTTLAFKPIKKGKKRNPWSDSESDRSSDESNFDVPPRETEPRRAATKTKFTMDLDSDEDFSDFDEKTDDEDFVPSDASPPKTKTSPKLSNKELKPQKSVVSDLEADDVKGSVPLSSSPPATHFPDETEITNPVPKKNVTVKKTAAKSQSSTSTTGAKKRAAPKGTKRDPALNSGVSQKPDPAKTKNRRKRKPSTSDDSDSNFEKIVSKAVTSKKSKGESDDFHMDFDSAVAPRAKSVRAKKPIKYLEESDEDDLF
Experimental: The catalytic inhibition of human topoisomerase IIα by a drug was measured by the ATP-dependent decatenation of kDNA (Topogen, Columbus, Ohio) into minicircles of DNA as we previously described (Hasinoff 1995 QSAR ICRF-187). The 20 μl reaction mixture contained 0.5 mM ATP, 50 mM Tris-HCl (pH 8.0), 120 mM KCl, 10 mM MgCl2, 30 μg/ml bovine serum albumin, 40 ng kDNA, drug or DMSO (0.5 μl) and 300 ng K562 cells nuclear extract, the amount that gave 80% decatenation. The enzymatic reaction was carried out at 37° C. and was terminated by the addition of 6 μl of buffer containing 5 mM Tris pH 8.0, 30% w/v sucrose, 0.5% bromophenol blue, and 125 mM EDTA. The resulting mixture was separated by electrophoresis (2 h at 8 V/cm) on an agarose gel prepared from 1.2% w/v agarose and 0.5 μg/ml ethidium bromide in TAE buffer pH 8.0 (40 mM Tris base, 0.114% (v/v) glacial acetic acid, 2 mM EDTA). The DNA in the gel was imaged by its fluorescence on an Alpha Annotech Fluorchem 8900 imaging system equipped with a 365 nm illuminator and a CCD camera. Densitometry scanning of gel photographs was used to obtain the fluorescence intensity of the band corresponding to the DNA minicircles. The percentage inhibition of K562 topoisomerase II catalytic activity at concentrations of 3 and 30 μM was determined using the following equation: % Inhibition=[(1−(Bdrug−Bbackground)/Bdmso]×100, where Bdrug is the band intensity value for the enzymatic reaction sample treated with drug, Bbackground is the band intensity value for sample without the enzyme, and Bdmso is the band intensity value for the enzymatic reaction sample treated with DMSO solvent only.

[1] = tested on: human leukemia K562 cells; experiment: K562 cell growth inhibition assay (MTS); type: cell-based; settings: 72 h incubation, read-out: Median growth inhibitory concentration (IC50) of K562 cells
Experimental: K562 cells were obtained from American Type Culture Collection (Rockville, Md.). These cells were maintained as suspension cultures in alpha minimum essential medium (αMEM) (Gibco BRL, Burlington, Canada) containing 2 mM L-glutamine and supplemented with 10% fetal calf serum (Invitrogen, Burlington, ON, Canada), 20 mM NaHCO3, 20 mM HEPES (Sigma), 100 units/ml penicillin G, and 100 μg/ml streptomycin at pH 7.4 in an atmosphere of 5% CO2 and 95% air at 37° C. For the measurement of growth inhibition, cells in exponential growth were harvested and seeded at 6000 cells/well in 96-well plates (100 μl/well). Drugs were dissolved in DMSO and added to the wells such that the final concentration of DMSO was 0.5% (v/v). After 72 h incubation, 7 μl of 3-(4,5-dimethylthiazol-2-yl)-5-(3-carboxymethoxyphenyl)-2-(4-sulfophenyl)-2H-tetrazolium (MTS) Cell Titer 96® AQueous One Solution (Promega, Md., WI) was added to each well and incubated for a further 3 h. The absorbance was measured in a Molecular Devices (Menlo Park, Calif.) plate reader. The spectrophotometric 96-well plate cell growth inhibition assay measures the ability of the cells to enzymatically reduce MTS. Three replicates were measured at each drug concentration, and the IC50 values and their SEs for growth inhibition were obtained by fitting the absorbance-drug concentration data to a four-parameter logistic equation.

% Inhibition of topoisomerase II catalytic activity (human topoisomerase IIα; 3 μM) [%] | % Inhibition of topoisomerase II catalytic activity (human topoisomerase IIα; 30 μM) [%] | pIC50 [1] | melting point [°C] | inhibition at 3 µM (human topoisomerase IIα; 3 μM) [%] | inhibition at 30 µM (human topoisomerase IIα; 30 μM) [%] | pIC50 ([1]; Homo sapiens, K562, 72 h) | Compound
100 | 100 | 6.30 |  |  |  |  | O=S1(=O)CCON=C1C1=Cc2ccccc2S1(=O)=O [compound 15]
80 | 100 | 5.40 |  |  |  |  | CCC1CS(=O)(=O)C(c2ccccc2)=C(c2ccccc2)S1(=O)=O (stereo not shown) [compound 16]
 |  |  | 190 to 191 | 100 | 100 | 5.52 | CCOC(=O)C1=C(c2ccccc2)S(=O)(=O)CCS1(=O)=O [compound 17, ethyl 1,1,4,4-tetraoxo-3-phenyl-5,6-dihydro-1λ^6,4λ^6-dithiine-2carboxylate]
70 | 100 | 5.30 |  |  |  |  | CCCCC1=C(c2ccccc2)S(=O)(=O)CCS1(=O)=O [compound 18]
100 | 100 | 5.40 |  |  |  |  | CC1C(C)S(=O)(=O)C(c2ccccc2)=CS1(=O)=O (stereo not shown) [compound 19]
 |  | 6.00 | 154 to 156 |  | 100 |  | CCOC(=O)C1=C(C(=O)OCC)S(=O)(=O)CCS1(=O)=O [compound 20, 2,3-diethyl 1,1,4,4-tetraoxo-5,6-dihydro-1λ^6,4λ^6-dithiine-2,3-dicarboxylate]
 |  |  |  | 100 | 100 | 6.22 | CC1=C(COc2ccccc2)S(=O)(=O)CCS1(=O)=O [compound 21, 2-methyl-3-(phenoxymethyl)-5,6-dihydro-1λ^6,4λ^6-dithiine-1,1,4,4-tetrone]
100 | 100 | 6.00 |  |  |  |  | CC1=C(CS(=O)(=O)c2ccccc2)S(=O)(=O)CCS1(=O)=O [compound 22]
100 | 100 | 5.64 |  |  |  |  | COCC1=C(COC)S(=O)(=O)CCS1(=O)=O [compound 23]
 |  |  | 142 to 145 | 100 | 100 | 5.60 | CCOC(=O)C1=C(C(F)(F)F)S(=O)(=O)CCS1(=O)=O [compound 24, ethyl 1,1,4,4-tetraoxo-3-(trifluoromethyl)-5,6-dihydro-1λ^6,4λ^6-dithiine-2-carboxylate]
 |  |  | 217 to 219 | 100 | 100 | 5.40 | O=C(Nc1ccccc1)C1=C(C(F)(F)F)S(=O)(=O)CCS1(=O)=O [compound 25, 1,1,4,4-tetraoxo-N-phenyl-3-(trifluoromethyl)-5,6-dihydro-1λ^6,4λ^6-dithiine-2-carboxamide]

The next lines start with the compound.

Compound | % Inhibition of topoisomerase II catalytic activity (human topoisomerase IIα; 3 μM) [%] | % Inhibition of topoisomerase II catalytic activity (human topoisomerase IIα; 30 μM) [%] | pIC50 [1] | melting point [°C] | inhibition at 3 µM (human topoisomerase IIα; 3 μM) [%] | inhibition at 30 µM (human topoisomerase IIα; 30 μM) [%] | pIC50 ([1]; Homo sapiens, K562, 72 h)
CCOC(=O)C1=C(C(=O)OCC)S(=O)(=O)CCS1(=O)=O [compound 1] | 70 | 100 | 4.96 | 68 to 70 |  |  | 
CC1=C(COc2ccccc2)S(=O)(=O)CCS1(=O)=O [compound 2] | 100 | 100 | 6.00 |  |  |  | 
O=C(Nc1ccccc1)C1=NOCC[S+]1[O-] (stereo not shown) [compound 3, 4-oxo-5,6-dihydro-N-phenyl-1,4λ^4,2-oxathiazine-3-carboxamide] |  |  |  | 150 to 154 | 100 | 100 | 6.00
O=C(Nc1ccccc1)C1=NOCCS1(=O)=O [compound 4, 4,4-dioxo-N-phenyl-5,6-dihydro-1, 4λ^6,2-oxathiazine-3-carboxamide] |  |  |  | 206 to 207 | 100 | 100 | 6.15
CCOC(=O)c1ccc(C2=NOCC[S+]2[O-])s1 (stereo not shown) [compound 7] | 100 | 100 | 6.05 |  |  |  | 
[O-][S+]1CCON=C1c1nnc(-c2cccc(Cl)c2)o1 (stereo not shown) [compound 8, 3-[5-(3-chlorophenyl)-1,3,4-oxadiazol-2-yl]-5,6-dihydro-1,4λ^4,2-oxathiazin-4-one] |  |  |  | 208 to 210 | 80 | 100 | 5.40
O=S1(=O)CCON=C1c1cc2ccccc2s1 [compound 10] | 100 | 100 | 6.30 |  |  |  | 
CC1C[S+]([O-])C(c2cc3ccccc3s2)=NO1 (stereo not shown) [compound 11] | 100 | 100 | 5.70 |  |  |  | 
Cc1ccc2sc(C3=NOCC[S+]3[O-])c(C)c2c1 (stereo not shown) [compound 12] | 100 | 100 | 6.15 |  |  |  | 
[O-][S+]1CCON=C1c1sc2ccccc2c1Br (stereo not shown) [compound 13, 3-(3-bromo-1-benzothiophen-2-yl)-5,6-dihydro-1,4λ^4,2-oxathiazin-4-one] |  |  |  |  | 100 | 100 | 6.00
[O-][S+]1CCON=C1c1cc2ccccc2[s+]1[O-] (stereo not shown) [compound 14] | 100 | 100 | 6.00 |  |  |  | 
